A short description of series [1]: Determination of solubility in water. To be noted: distilled water, 20-22° C., shaken 20 min. It is filed as physicochemical.
Description: The polyphosphates to be investigated were each weighed out in a 250 ml Erlenmeyer flask (5 g±0.01 g) and admixed with distilled water (50 ml, 20-22° C.). The mixture thus obtained was shaken at 200 revolutions per minute (rpm, rotary movement) for 20 min. Thereafter, the mixture was transferred to a centrifuge tube and centrifuged at 5000 rpm for 20 min. […] The solubility in g per 100 g of water was then obtained from the formula TR×10, where TR represents the determined dry residue in grams.
For series [2], the system named is thrombin formation in blood plasma. As to the kind of experiment: Assay for measuring thrombin formation in real-time (thrombogram). The class given is biochemical. The following applies: low-thrombocyte plasma; maximum thrombin concentration in thrombogram. As for the experimental part: This method was used to determine the formation of thrombin in blood plasma, triggered in each case by the polyphosphates, in relation to time and to the amounts of polyphosphate used. With the aid of the so-called thrombograms thus obtained, it is possible to draw conclusions concerning the response rate and the extent of thrombin formation. The measurements were carried out in accordance with the instructions from Thrombinoscope BV (manufacturer of the below-mentioned fluorogenic substrate) in a fluorometer (Fluoroscan Ascent, Thermo Scientific) equipped with a dispenser (see F. Müller et al., Cell 2009, 139, 1143-1156 and Supplemental Data). […] Inner filter effects and the substrate consumption were corrected by calibrating each measurement against a fluorescence curve which was determined by means of a mixture of the plasma (80 μl) with a fixed amount of thrombin/α2-macroglobulin complex (Thrombin Calibrator, Thrombinoscope BV). […]
Characteristic of the thrombograms are, in particular, the delay time and the endogenous thrombin potential (ETP). […] ETP refers to the integral of the measured curve of the thrombin concentration. […]
Table 1 below characterizes the investigated phosphates in terms of their water solubility, their chain length, their solid structure and their hemostatic action. Here, water-soluble refers to phosphates having a water solubility of at least 1 g per 100 g of water, as determined by the above-described technique. Here, hemostatic refers to phosphates where the thrombograms, as determined by the above-described technique, have a maximum thrombin concentration of at least 50 nM. As can be clearly read off from Table 1, all the crystalline, water-insoluble polyphosphates according to the invention are notable for a hemostatic action, whereas amorphous, water-soluble polyphosphates and also crystalline mono-, tri- and metaphosphates are not hemostatic.

With `O=P1([O-])OP(=O)([O-])OP(=O)([O-])O1.[Na+].[Na+].[Na+]` [Example V7, sodium trimetaphosphate], the Water-soluble result in series [1] is recorded as “Yes (water-soluble refers to phosphates having a water solubility of at least 1 g per 100 g of water)”. Moreover, in series [2], the Hemostatic result was “No (hemostatic refers to phosphates where the thrombograms, as determined by the above-described technique, have a maximum thrombin concentration of at least 50 nM)”.
Take `O.O.O=P([O-])([O-])O.[Ca+2]` [Example V8, dicalcium phosphate dihydrate]: the Hemostatic result in series [2] is “No (hemostatic refers to phosphates where the thrombograms, as determined by the above-described technique, have a maximum thrombin concentration of at least 50 nM)”.
Same read-out and setting: with `O=P([O-])([O-])OP(=O)([O-])OP(=O)([O-])[O-].[Na+].[Na+].[Na+].[Na+].[Na+]` [Example V1, sodium triphosphate] the entry was “No (hemostatic refers to phosphates where the thrombograms, as determined by the above-described technique, have a maximum thrombin concentration of at least 50 nM)”.
